Consider eleven molecules from article PMC7143578, “Terpenoids from the Deep-Sea-Derived Fungus Penicillium thomii YPGA3 and Their Bioactivities” (Marine Drugs, 2020).

Structures are written as SMILES.

The nature of data set [1]: Cytotoxicity toward MDA-MB-468 breast carcinoma cells. In kind it is cell-based, human. Also noted: viability: concentration or dose not given beside the values. Conditions: human, MDA-MB-468 breast carcinoma cells; read-out: cytotoxicity (%) toward MDA-MB-468 (cell viability).
The subject of data set [2] is MDA-MB-468 cells. The data set is described as above. Type of data set: cell-based, human. Also noted: viability: concentration or dose not given beside the values. The settings on record: Homo sapiens, MDA-MB-468.
A short description of data set [3]: Cytotoxicity toward MCF-7 breast carcinoma cells. In kind it is cell-based. Also noted: concentration or dose not given beside the values. Conditions: human, read-out: cytotoxicity (%) toward MCF-7 (cell viability).
The nature of data set [4]: MTT cell viability of RAW 264.7 macrophages. In kind it is cell-based. The settings on record: mouse, LPS-activated RAW 264.7 macrophages, MTT assay, read-out: cytotoxicity (%) toward RAW 264.7 (cell viability). As to the method: (§1) The isolated compounds were also evaluated for their inhibitory effects against NO production in LPS-activated RAW 264.7 macrophages at the concentration of 50 μM following the same procedures in our previous study. The cell viability was further determined by the MTT assay to evaluate whether the inhibition on NO production was owing to the cytotoxicity.
For orientation: Tetrazolium dyes change colour on reduction, which living cells bring about.

Data set [5] relates to RAW 264.7 cells. Put plainly: MTT cell viability of RAW 264.7 macrophages. Type of data set: cell-based. Conditions: MTT assay, 50 μM. As to the method:
as §1

For data set [6], the system named is α-glucosidase from Saccharomyces cerevisiae. Put plainly: α-glucosidase inhibition assay (PNPG substrate). The settings on record: for inhibition of α-glucosidase: initial concentration of 1 mM; for IC50: three replicates, read-out: IC50 against α-glucosidase. In kind it is biochemical. As for the experimental part: The α-glucosidase inhibitory effect was assessed as follows. First, 0.2 U of α-glucosidase from Saccharomyces cerevisiae was purchased from Sigma-Aldrich (St. Louis, MO, USA), and was diluted in a 0.067 M phosphate buffer consisting of Na2HPO4·12H2O and KH2PO4 (pH 6.8). The assay was conducted in a 60 μL reaction system containing 20 μL of diluted enzyme solution, and 20μL of dimethyl sulfoxide (DMSO) or sample (dissolved in DMSO). […] The plate was incubated for an additional 20 min at 37 °C, and the reaction was quenched by adding 60 μL of 0.2 M Na2CO3. The final concentrations of tested compounds were between 0.2 and 2 mM. The optical density (OD) was measured at an absorbance wavelength of 405 nm using a Microplate Reader (Tecan, Mannedorf, Switzerland).

Data set [7] deals with NO production in LPS-activated RAW 264.7 macrophages. The experiment in a line: Inhibition of NO production in LPS-activated RAW 264.7 macrophages. In kind it is cell-based. The settings on record: Mus musculus, RAW264.7, 50 μM, read-out: Inhibitions (%) on NO production. As to the method:
as §1

What is called viability is a read-out of living cells in per cent, often relative to untreated cells. In general, IC50 refers to the concentration that gives 50% inhibition. Regarding `COC(=O)CCC1(C)C(C(C)(C)O)CCC2(C)Oc3c(C)c4c(c(O)c3CC21)C(=O)OC4` (stereo not shown) [Compound 1, austalide Y], the values for the viability in data set [1] and in data set [3] were 31.6% and 104%, respectively. Besides, inhibition in data set [2] was half-maximal at 38.9 ± 1.83 µM (IC50). In data set [4], the viability at 50 µM worked out at 33.1%. In data set [5], the “cytotoxicity (%) toward RAW 264.7 (cell viability)” value is “obvious cytotoxic effects”.

For `COC(=O)CC[C@]1(C)[C@H]2Cc3c(c(C)c4c(c3OC)C(=O)OC4)O[C@@]2(C)CC[C@H]1C(C)(C)O` [Compound 2, austalide P], the viability in data set [1] amounted to 78.2%. Further, in data set [6], the “inhibition of α-glucosidase” value is “more than 50%” and the IC50 is 910 ± 4 µM. For the same molecule, the viability in data set [3] came to 117%. Moreover, the inhibition at 50 µM in data set [7] was > 50%. Also, in data set [4], the viability at 50 µM came out at 46.2%. For the same molecule, the “cytotoxicity (%) toward RAW 264.7 (cell viability)” value in data set [5] is “obvious cytotoxic effects”.

In the case of `COC(=O)CC[C@]1(C)[C@H]2Cc3c(c(C)c4c(c3OC)C(=O)OC4)O[C@@]2(C)C[C@@H](O)[C@H]1C(C)(C)O` [Compound 3, austalide H], the viability in data set [1] came out at 87.2%; in data set [3] it was 84.7%. In addition, in data set [7], the inhibition at 50 µM was -9.91%. Also, the viability at 50 µM in data set [4] came to 60.9%.

Turning to `COc1c2c(c(C)c3c1C(=O)OC3)O[C@@]1(C)CC[C@@H](C(C)(C)O)[C@](C)(CCC(=O)O)[C@H]1C2` [Compound 4, austalide P acid], the viability worked out at 92.6% in data set [1] and 82.4% in data set [3]. Further, the inhibition at 50 µM in data set [7] stood at 5.29%. For the same molecule, the viability at 50 µM in data set [4] came out at 97.4%.

Regarding `COc1c2c(c(C)c3c1C(=O)OC3)O[C@@]1(C)C[C@@H](O)[C@@H](C(C)(C)O)[C@](C)(CCC(=O)O)[C@H]1C2` [Compound 5, austalide H acid], the viability in data set [1] is 87.3%; in data set [3] it was 69.1%. For the same molecule, the inhibition at 50 µM in data set [7] turned out to be 12.1%. For the same molecule, in data set [4], the viability at 50 µM turned out to be 104%.

Regarding `COc1c2c(c(C)c3c1C(=O)OC3)OC1(C)CC(O)C34OC(O)(CCC3(C)C1C2)OC4(C)C` (stereo not shown) [Compound 6, 17-O-demethylaustalide B], the results for the viability in data set [1] and in data set [3] were 92.3% and 73.8%, respectively. Besides, in data set [7], the inhibition at 50 µM was -3.74%. For the same molecule, the viability at 50 µM in data set [4] was determined as 74.6%.

With `C=C(C)[C@@H]1[C@H](O)C[C@]2(C)Oc3c(C)c4c(c(OC)c3C[C@@H]2[C@@]1(C)CCC(=O)O)C(=O)OC4` [Compound 7, austalide Q acid], the viability is 91.1% in data set [1] and 74.8% in data set [3]. Further, the inhibition at 50 µM in data set [7] is -3.08%. Besides, in data set [4], the viability at 50 µM came out at 80.8%.

As to `C=C(C)[C@@H]1CC[C@]2(C)Oc3c(C)c4c(c(OC)c3C[C@@H]2[C@@]1(C)CCC(=O)O)C(=O)OC4` [Compound 8, 13-deoxyaustalide Q acid], the viability in data set [1] amounted to 79.3%; in data set [3], 76.3%. In addition, the inhibition at 50 µM in data set [7] was determined as 24%. In data set [4], the viability at 50 µM is 53.5%.

As to `C=C1CCC2C(C)(CCC(O)C2(C)C(=O)O)C1CCC(C)=CC(=O)O` (stereo not drawn) [Compound 9, 3β-hydroxy-agathic acid], the viability in data set [1] came out at 92.1%; in data set [3], 88.8%. For the same molecule, the “inhibition of α-glucosidase” value in data set [6] is on record as “low inhibition”. Also, the inhibition at 50 µM in data set [7] was determined as 7.81%. The viability at 50 µM in data set [4] stood at 83.3%.

Regarding `C=C1CCC2C(C)(CCC(OC(C)=O)C2(C)C(=O)O)C1CCC(C)=CC(=O)O` (stereo not drawn) [Compound 10, 3β-acetoxy-agathic acid], the viability in data set [1] came to 94.5%; in data set [3] it was 90%. Moreover, the “inhibition of α-glucosidase” value in data set [6] is reported as “low inhibition”. In data set [4], the viability at 50 µM was found to be 58.4%. Further, the “cytotoxicity (%) toward RAW 264.7 (cell viability)” value in data set [5] is “obvious cytotoxic effects”.

For `C=C1CC[C@@H]2[C@](C)(CCC[C@]2(C)C(=O)O)[C@H]1CC/C(C)=C/C(=O)O` [Compound 11, agathic acid], the viability in data set [1] turned out to be 89.3%. In data set [6], the “inhibition of α-glucosidase” value is “more than 50%” and the IC50 came out at 525 ± 2 µM. Moreover, the viability in data set [3] was 83.5%. Besides, the inhibition at 50 µM in data set [7] was 4.85%. The viability at 50 µM in data set [4] was determined as 89.9%.
